Test results published in patent publication US10758534B2 (Vertex Pharmaceuticals Incorporated, priority 2014, dated 2020).

Molecular target: T1, F508del (Homo sapiens, UniProt P13569, DEL508-508)
T1 construct: expressed in transfected cells
Assay: Protocol 1: membrane potential optical assay (FLIPR III, voltage sensing dye), identification of potentiator compounds
Assay type: cell-based
Details: Table 3, compounds of Table 1
Method in brief: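 NIH3T3 F508del cells, 27° C × 24 hrs; compound/DMSO pretreat → redistribution dye load → single forskolin addition with Cl⁻ gradient (gluconate-substituted bath, HEPES pH 7.4). FLIPR III membrane-potential fluorescence read.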

T1 sequence (P13569 with tags, fused parts or gaps DEL508-508): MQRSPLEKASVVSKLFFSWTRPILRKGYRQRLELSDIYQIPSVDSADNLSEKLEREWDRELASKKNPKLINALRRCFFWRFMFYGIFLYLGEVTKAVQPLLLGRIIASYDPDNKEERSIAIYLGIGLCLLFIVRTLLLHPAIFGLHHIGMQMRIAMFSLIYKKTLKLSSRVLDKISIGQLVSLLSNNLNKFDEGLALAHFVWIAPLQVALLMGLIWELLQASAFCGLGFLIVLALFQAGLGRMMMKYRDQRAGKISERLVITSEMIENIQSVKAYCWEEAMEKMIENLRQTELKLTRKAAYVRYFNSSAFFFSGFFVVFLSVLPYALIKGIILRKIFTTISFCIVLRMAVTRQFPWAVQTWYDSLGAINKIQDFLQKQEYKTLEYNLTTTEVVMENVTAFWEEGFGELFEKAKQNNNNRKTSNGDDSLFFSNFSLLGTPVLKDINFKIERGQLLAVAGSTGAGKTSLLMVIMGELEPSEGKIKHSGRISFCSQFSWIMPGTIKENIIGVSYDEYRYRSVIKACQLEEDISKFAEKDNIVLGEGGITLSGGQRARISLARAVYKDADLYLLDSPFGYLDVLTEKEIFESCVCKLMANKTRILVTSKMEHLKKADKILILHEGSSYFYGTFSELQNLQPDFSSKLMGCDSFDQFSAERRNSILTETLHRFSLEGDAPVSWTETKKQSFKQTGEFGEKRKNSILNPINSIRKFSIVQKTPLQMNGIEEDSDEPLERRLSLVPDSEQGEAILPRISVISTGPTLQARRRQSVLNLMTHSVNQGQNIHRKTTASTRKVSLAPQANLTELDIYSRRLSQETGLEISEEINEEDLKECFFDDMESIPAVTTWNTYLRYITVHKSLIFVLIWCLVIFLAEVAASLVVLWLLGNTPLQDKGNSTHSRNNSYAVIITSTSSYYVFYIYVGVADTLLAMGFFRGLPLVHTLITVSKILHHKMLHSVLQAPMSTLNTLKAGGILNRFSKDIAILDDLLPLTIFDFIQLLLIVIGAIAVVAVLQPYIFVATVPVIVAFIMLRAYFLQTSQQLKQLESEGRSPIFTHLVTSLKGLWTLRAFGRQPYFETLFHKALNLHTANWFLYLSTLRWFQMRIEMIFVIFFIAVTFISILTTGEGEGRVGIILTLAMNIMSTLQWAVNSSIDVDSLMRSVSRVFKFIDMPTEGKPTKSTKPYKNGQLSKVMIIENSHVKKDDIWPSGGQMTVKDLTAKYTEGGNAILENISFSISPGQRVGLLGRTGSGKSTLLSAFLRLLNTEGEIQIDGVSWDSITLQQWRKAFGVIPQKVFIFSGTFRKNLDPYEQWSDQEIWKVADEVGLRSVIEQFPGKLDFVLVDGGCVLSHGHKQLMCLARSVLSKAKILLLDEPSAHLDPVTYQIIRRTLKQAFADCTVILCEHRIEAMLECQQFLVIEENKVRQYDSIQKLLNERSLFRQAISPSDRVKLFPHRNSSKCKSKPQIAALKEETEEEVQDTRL

| SMILES | EC30 |
| --- | --- |
| CC(C)COc1cc(F)cc(-c2ccc(C(=O)NS(=O)(=O)c3ccn[nH]3)c(N3CCC(C)(C)CC3)n2)c1 [Compound 1110, 2-(4,4-dimethyl-1-piperidyl)-6-(3-fluoro-5-isobutoxy-phenyl)-N-(1H-pyrazol-5-ylsulfonyl)pyridine-3-carboxamide] | +++ (“+++” means <3 uM) |
| COc1ccc(C#N)cc1-c1ccc(C(=O)NS(=O)(=O)c2cccc(N)n2)c(Oc2c(C)cc(C)cc2C)n1 [Compound 1111, N-[(6-amino-2-pyridyl)sulfonyl]-6-(5-cyano-2-methoxy-phenyl)-2-(2,4,6-trimethylphenoxy)pyridine-3-carboxamide] | +++ (“+++” means <3 uM) |
| CC(C)Oc1ccc(-c2ccc(C(=O)NS(=O)(=O)c3cccc(N)n3)c(N3CCC(c4ccccc4)C3)n2)cn1 (centres unmarked) [Compound 1112, N-[(6-amino-2-pyridyl)sulfonyl]-6-(6-isopropoxy-3-pyridyl)-2-(3-phenylpyrrolidin-1-yl)pyridine-3-carboxamide] | ++ (“++” means between 3 uM and 10 uM) |
| Cc1cc(C)c(Oc2nc(-c3ccc(OCc4ccccc4)cc3F)ccc2C(=O)NS(=O)(=O)c2cccc(N)n2)c(C)c1 [Compound 1113, N-[(6-amino-2-pyridyl)sulfonyl]-6-(4-benzyloxy-2-fluoro-phenyl)-2-(2,4,6-trimethylphenoxy)pyridine-3-carboxamide] | +++ (“+++” means <3 uM) |
| COc1cncc(-c2ccc(C(=O)NS(=O)(=O)c3cccc(N)n3)c(Oc3c(C)cc(C)cc3C)n2)c1 [Compound 1115, N-[(6-amino-2-pyridyl)sulfonyl]-6-(5-methoxy-3-pyridyl)-2-(2,4,6-trimethylphenoxy)pyridine-3-carboxamide] | + (“+” means greater than 10 uM) |
| COCC1CCCN(c2nc(-c3ccc(OC(C)C)nc3)ccc2C(=O)NS(=O)(=O)c2cccc(N)n2)C1 (centres unmarked) [Compound 1116, N-[(6-amino-2-pyridyl)sulfonyl]-6-(6-isopropoxy-3-pyridyl)-2-[3-(methoxymethyl)-1-piperidyl]pyridine-3-carboxamide] | ++ (“++” means between 3 uM and 10 uM) |
| CC(C)COc1cc(F)cc(-c2ccc(C(=O)NS(=O)(=O)c3cccc(N)n3)c(N(C)C3CC3)n2)c1 [Compound 1117, N-[(6-amino-2-pyridyl)sulfonyl]-2-[cyclopropyl(methyl)amino]-6-(3-fluoro-5-isobutoxy-phenyl)pyridine-3-carboxamide] | +++ (“+++” means <3 uM) |
| CCc1cccc(-c2ccc(C(=O)NS(=O)(=O)c3cccc(N)n3)c(Oc3c(C)cc(C)cc3C)n2)c1 [Compound 1118, N-[(6-amino-2-pyridyl)sulfonyl]-6-(3-ethylphenyl)-2-(2,4,6-trimethylphenoxy)pyridine-3-carboxamide] | +++ (“+++” means <3 uM) |
| CC(C)COc1cc(F)cc(-c2ccc(C(=O)NS(=O)(=O)c3ccn[nH]3)c(N3CC(C)OC(C)C3)n2)c1 (centres unmarked) [Compound 1119, 2-(2,6-dimethylmorpholin-4-yl)-6-(3-fluoro-5-isobutoxy-phenyl)-N-(1H-pyrazol-5-ylsulfonyl)pyridine-3-carboxamide] | ++ (“++” means between 3 uM and 10 uM) |
| Cc1cc(C)c(Oc2nc(-c3ccccc3C)ccc2C(=O)NS(=O)(=O)c2cccc(N)n2)c(C)c1 [Compound 1120, N-[(6-amino-2-pyridyl)sulfonyl]-6-(o-tolyl)-2-(2,4,6-trimethylphenoxy)pyridine-3-carboxamide] | +++ (“+++” means <3 uM) |
| CC(C)COc1cc(F)cc(-c2ccc(C(=O)NS(=O)(=O)c3cccc(N)n3)c(N3CCC(C)C3(C)C)n2)c1 (centres unmarked) [Compound 1121, N-[(6-amino-2-pyridyl)sulfonyl]-6-(3-fluoro-5-isobutoxy-phenyl)-2-(2,2,3-trimethylpyrrolidin-1-yl)pyridine-3-carboxamide] | +++ (“+++” means <3 uM) |
| Cc1cc(C)c(Oc2nc(-c3ccccc3)ccc2C(=O)NS(=O)(=O)c2cccc(NCCN(C)C)n2)c(C)c1 [Compound 1122, N-[[6-(2-dimethylaminoethylamino)-2-pyridyl]sulfonyl]-6-phenyl-2-(2,4,6-trimethylphenoxy)pyridine-3-carboxamide] | ++ (“++” means between 3 uM and 10 uM) |
| CC(C)Oc1cc(F)cc(-c2ccc(C(=O)NS(=O)(=O)c3cccc(N)n3)c(N3[C@H](C)CC[C@@H]3C)n2)c1 [Compound 1123, N-[(6-amino-2-pyridyl)sulfonyl]-2-[(2S,5R)-2,5-dimethylpyrrolidin-1-yl]-6-(3-fluoro-5-isopropoxy-phenyl)pyridine-3-carboxamide] | +++ (“+++” means <3 uM) |
| COc1ccccc1S(=O)(=O)NC(=O)c1ccc(C(C)(C)C)nc1-c1ccc(C)cc1 [Compound 1124, 6-tert-butyl-N-(2-methoxyphenyl)sulfonyl-2-(p-tolyl)pyridine-3-carboxamide] | +++ (“+++” means <3 uM) |
| C[C@@H]1CC[C@H](C)N1c1nc(-c2ccc(OC3CC3)nc2)ccc1C(=O)NS(=O)(=O)c1cccc(N)n1 [Compound 1125, N-[(6-amino-2-pyridyl)sulfonyl]-6-[6-(cyclopropoxy)-3-pyridyl]-2-[(2S,5R)-2,5-dimethylpyrrolidin-1-yl]pyridine-3-carboxamide] | ++ (“++” means between 3 uM and 10 uM) |
| Cc1cc(C)c(Oc2nc(-c3cnc(NC4CC4)nc3)ccc2C(=O)NS(=O)(=O)c2cccc(N)n2)c(C)c1 [Compound 1126, N-[(6-amino-2-pyridyl)sulfonyl]-6-[2-(cyclopropylamino)pyrimidin-5-yl]-2-(2,4,6-trimethylphenoxy)pyridine-3-carboxamide] | + (“+” means greater than 10 uM) |
| CC(C)COc1cc(F)cc(-c2ccc(C(=O)NS(=O)(=O)c3ccn[nH]3)c(N3CCC4(CC3)CC4)n2)c1 [Compound 1127, 2-(6-azaspiro[2.5]octan-6-yl)-6-(3-fluoro-5-isobutoxy-phenyl)-N-(1H-pyrazol-5-ylsulfonyl)pyridine-3-carboxamide] | +++ (“+++” means <3 uM) |
| CCNc1ccc(C(=O)NS(=O)(=O)c2cccc(N)n2)c(Oc2c(C)cc(C)cc2C)n1 [Compound 1128, N-[(6-amino-2-pyridyl)sulfonyl]-6-(ethylamino)-2-(2,4,6-trimethylphenoxy)pyridine-3-carboxamide] | ++ (“++” means between 3 uM and 10 uM) |
| Cc1ccc(-c2ccc(C(=O)NS(=O)(=O)c3ccc[nH]c3=O)c(Oc3ccc(C)cc3C)n2)cc1 [Compound 1129, 2-(2,4-dimethylphenoxy)-N-[(2-oxo-1H-pyridin-3-yl)sulfonyl]-6-(p-tolyl)pyridine-3-carboxamide] | ++ (“++” means between 3 uM and 10 uM) |

Continued, values first:

| EC30 | SMILES |
| --- | --- |
| ++ (“++” means between 3 uM and 10 uM) | CCOc1ncc(-c2ccc(C(=O)NS(=O)(=O)c3cccc(N)n3)c(Oc3c(C)cc(C)cc3C)n2)cn1 [Compound 1130, N-[(6-amino-2-pyridyl)sulfonyl]-6-(2-ethoxypyrimidin-5-yl)-2-(2,4,6-trimethylphenoxy)pyridine-3-carboxamide] |
| +++ (“+++” means <3 uM) | Cc1cc(C)c(Oc2nc(C3CCCCC3)ccc2C(=O)NS(=O)(=O)c2cccc(N)n2)c(C)c1 [Compound 1131, N-[(6-amino-2-pyridyl)sulfonyl]-6-cyclohexyl-2-(2,4,6-trimethylphenoxy)pyridine-3-carboxamide] |
| +++ (“+++” means <3 uM) | CC(C)Oc1ccc(-c2ccc(C(=O)NS(=O)(=O)c3cccc(N)n3)c(N3CCCC(C4CC4)C3)n2)cn1 (centres unmarked) [Compound 1132, N-[(6-amino-2-pyridyl)sulfonyl]-2-(3-cyclopropyl-1-piperidyl)-6-(6-isopropoxy-3-pyridyl)pyridine-3-carboxamide] |
| +++ (“+++” means <3 uM) | CCOc1cccc(-c2ccc(C(=O)NS(=O)(=O)c3cccc(N)n3)c(Oc3c(C)cc(C)cc3C)n2)n1 [Compound 1133, N-[(6-amino-2-pyridyl)sulfonyl]-6-(6-ethoxy-2-pyridyl)-2-(2,4,6-trimethylphenoxy)pyridine-3-carboxamide] |
| +++ (“+++” means <3 uM) | CC(C)Oc1ccc(-c2ccc(C(=O)NS(=O)(=O)c3cccc(N)n3)c(N3CCC(C)(C)CC3)n2)cn1 [Compound 1134, N-[(6-amino-2-pyridyl)sulfonyl]-2-(4,4-dimethyl-1-piperidyl)-6-(6-isopropoxy-3-pyridyl)pyridine-3-carboxamide] |
| +++ (“+++” means <3 uM) | CC(C)CCOc1cccc(-c2ccc(C(=O)NS(=O)(=O)c3cccc(N)n3)c(N3CC(C)CC3(C)C)n2)n1 (centres unmarked) [Compound 1135, N-[(6-amino-2-pyridyl)sulfonyl]-6-(6-isopentyloxy-2-pyridyl)-2-(2,2,4-trimethylpyrrolidin-1-yl)pyridine-3-carboxamide] |
| +++ (“+++” means <3 uM) | CC(C)Oc1ccc(-c2ccc(C(=O)NS(=O)(=O)c3cccc(N)n3)c(N3C[C@@H](C)C[C@H](C)C3)n2)cn1 [Compound 1136, N-[(6-amino-2-pyridyl)sulfonyl]-2-[(3S,5S)-3,5-dimethyl-1-piperidyl]-6-(6-isopropoxy-3-pyridyl)pyridine-3-carboxamide] |
| ++ (“++” means between 3 uM and 10 uM) | Cc1cc(C)c(Oc2nc(C)ccc2C(=O)NS(=O)(=O)c2cccc(N)n2)c(C)c1 [Compound 1137, N-[(6-amino-2-pyridyl)sulfonyl]-6-methyl-2-(2,4,6-trimethylphenoxy)pyridine-3-carboxamide] |
| +++ (“+++” means <3 uM) | Cc1cc(C)c(Oc2nc(-c3cc(F)cc(OC(C)C)c3)ccc2C(=O)NS(=O)(=O)c2cccc(N)n2)c(C)c1 [Compound 1138, N-[(6-amino-2-pyridyl)sulfonyl]-6-(3-fluoro-5-isopropoxy-phenyl)-2-(2,4,6-trimethylphenoxy)pyridine-3-carboxamide] |
| +++ (“+++” means <3 uM) | Cc1cc(C)c(Oc2nc(-c3cnc(N(C)C)nc3)ccc2C(=O)NS(=O)(=O)c2cccc(N)n2)c(C)c1 [Compound 1139, N-[(6-amino-2-pyridyl)sulfonyl]-6-[2-(dimethylamino)pyrimidin-5-yl]-2-(2,4,6-trimethylphenoxy)pyridine-3-carboxamide] |
